Molecular target: wild type RET (Homo sapiens (Human), UniProt P07949)
Experiment: RET Wild Type Assay at KM (Caliper electrophoretic mobility shift)
Assay type: biochemical
Settings: 25 μM ATP, 25° C., 120 minutes; read-out: Wild-type RET (RET Inhibitory Activity)

Sequence of wild type RET (P07949 29-1114): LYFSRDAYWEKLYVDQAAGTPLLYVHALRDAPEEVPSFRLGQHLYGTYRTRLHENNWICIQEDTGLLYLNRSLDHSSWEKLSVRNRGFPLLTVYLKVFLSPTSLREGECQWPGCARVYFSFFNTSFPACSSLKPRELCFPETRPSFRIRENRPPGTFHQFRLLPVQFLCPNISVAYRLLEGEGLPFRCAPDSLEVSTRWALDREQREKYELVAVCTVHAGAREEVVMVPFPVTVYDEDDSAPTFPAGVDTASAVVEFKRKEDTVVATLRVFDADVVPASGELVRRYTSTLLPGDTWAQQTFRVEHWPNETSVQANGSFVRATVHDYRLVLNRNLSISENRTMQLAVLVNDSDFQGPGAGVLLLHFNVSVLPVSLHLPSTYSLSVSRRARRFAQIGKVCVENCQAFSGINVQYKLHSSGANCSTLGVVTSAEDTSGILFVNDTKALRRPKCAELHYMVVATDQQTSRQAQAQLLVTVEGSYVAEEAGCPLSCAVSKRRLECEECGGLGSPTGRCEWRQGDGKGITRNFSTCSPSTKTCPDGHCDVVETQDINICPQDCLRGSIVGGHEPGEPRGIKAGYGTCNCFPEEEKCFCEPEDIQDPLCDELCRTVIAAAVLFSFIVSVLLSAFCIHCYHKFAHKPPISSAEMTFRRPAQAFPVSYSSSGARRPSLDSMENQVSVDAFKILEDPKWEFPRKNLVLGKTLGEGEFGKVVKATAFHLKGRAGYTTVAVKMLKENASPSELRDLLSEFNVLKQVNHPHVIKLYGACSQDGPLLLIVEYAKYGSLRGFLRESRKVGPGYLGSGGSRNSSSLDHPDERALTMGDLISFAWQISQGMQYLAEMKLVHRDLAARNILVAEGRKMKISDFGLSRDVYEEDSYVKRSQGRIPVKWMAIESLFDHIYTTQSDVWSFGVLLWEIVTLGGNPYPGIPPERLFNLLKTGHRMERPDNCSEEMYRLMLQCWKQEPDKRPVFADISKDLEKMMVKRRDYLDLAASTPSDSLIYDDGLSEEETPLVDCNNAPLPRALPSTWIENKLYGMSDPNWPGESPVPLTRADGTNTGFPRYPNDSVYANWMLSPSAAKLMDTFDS

| Compound | IC50 |
| --- | --- |
| Cc1cc(Nc2cc(C)[nH]n2)nc([C@H]2C[C@H](C(=O)NCc3ccc(-n4cccn4)nc3)C2)c1 [Compound 100] | < 1 nM |
| Cc1cc(Nc2cc(C)[nH]n2)nc([C@H]2C[C@H](C(=O)N[C@H](C)c3ccc(-n4cccn4)nc3)C2)c1 [Compound 101] | < 1 nM |
| Cc1cc(Nc2cc(C)[nH]n2)nc([C@H]2C[C@H](C(=O)N[C@@H](C)c3ccc(-n4cc(F)cn4)nc3)C2)c1 [Compound 102] | < 1 nM |
| Cc1cc(Nc2cc(C)[nH]n2)nc([C@H]2C[C@@H](C(=O)N[C@@H](C)c3ccc(-n4cc(F)cn4)nc3)C2)c1 [Compound 103] | 10 to 100 nM |
| Cc1cc(Nc2cc(C)[nH]n2)nc([C@H]2C[C@H](C(=O)N[C@H](C)c3cnc(-n4cc(F)cn4)cn3)C2)c1 [Compound 104] | < 1 nM |
| Cc1cc(Nc2cc(C)[nH]n2)nc([C@H]2C[C@H](C(=O)N[C@@H](C)c3ccc(-n4cc(F)cn4)nc3)C2)n1 [Compound 105] | < 1 nM |
| Cc1cc(Nc2cc(C)[nH]n2)nc([C@H]2C[C@@](C)(C(=O)N[C@@H](C)c3ccc(-n4cc(F)cn4)nc3)C2)n1 [Compound 107, (1S,3R)—N—((S)-1-(6-(4-fluoro-1H-pyrazol-1-yl)pyridin-3-yl)ethyl)-1-methyl-3-(4-methyl-6-((5-methyl-1H-pyrazol-3-yl)amino)pyrimidin-2-yl)cyclobutane-1-carboxamide] | 1.01 to 10 nM |
| Cc1cc(Nc2cc(C)[nH]n2)nc([C@H]2C[C@](C)(C(=O)N[C@@H](C)c3ccc(-n4cc(F)cn4)nc3)C2)n1 [Compound 108, (1R,3S)—N—((S)-1-(6-(4-fluoro-1H-pyrazol-1-yl)pyridin-3-yl)ethyl)-1-methyl-3-(4-methyl-6-((5-methyl-1H-pyrazol-3-yl)amino)pyrimidin-2-yl)cyclobutane-1-carboxamide] | < 1 nM |
| Cc1cc(Nc2cc(C)[nH]n2)nc([C@H]2C[C@](C)(C(=O)N[C@@H](C)c3cnc(-n4cc(F)cn4)cn3)C2)n1 [Compound 110] | < 1 nM |
| CO[C@]1(C(=O)N[C@@H](C)c2ccc(-n3cc(F)cn3)nc2)C[C@H](c2cc(C)cc(Nc3cc(C)[nH]n3)n2)C1 [Compound 120] | < 1 nM |
| CO[C@]1(C(=O)N[C@@H](C)c2ccc(-n3cc(F)cn3)nc2)C[C@H](c2nc(C)cc(Nc3cc(C)[nH]n3)n2)C1 [Compound 121] | < 1 nM |
| CO[C@]1(C(=O)N[C@@H](C)c2ccc(-n3cc(F)cn3)nc2)C[C@H](c2cc(C)nc(Nc3cc(C)[nH]n3)n2)C1 [Compound 122] | < 1 nM |
| CO[C@]1(C(=O)N[C@@H](C)c2cnc(-n3cc(F)cn3)cn2)C[C@H](c2nc(C)cc(Nc3cc(C)[nH]n3)n2)C1 [Compound 123] | < 1 nM |
| CO[C@]1(C(=O)N[C@@H](C)c2cnc(-n3cc(F)cn3)cn2)C[C@H](c2cc(C)nc(Nc3cc(C)[nH]n3)n2)C1 [Compound 124] | < 1 nM |
| CO[C@]1(C(=O)NCc2cnc(-n3cc(F)cn3)cn2)C[C@H](c2cc(C)nc(Nc3cc(C)[nH]n3)n2)C1 [Compound 131] | 1.01 to 10 nM |

Now from value to compound:

| IC50 | Compound |
| --- | --- |
| < 1 nM | Cc1cc(Nc2cc(C)[nH]n2)nc([C@]2(O)C[C@@H](C(=O)N[C@@H](C)c3ccc(-n4cc(F)cn4)nc3)C2)c1 [Compound 109] |
| 10 to 100 nM | Cc1cc(Nc2cc(C)[nH]n2)nc([C@]2(F)C[C@H](C(=O)N[C@@H](C)c3ccc(-n4cc(F)cn4)nc3)C2)c1 [Compound 113, (1S,3R)-3-fluoro-N—((S)-1-(6-(4-fluoro-1H-pyrazol-1-yl)pyridin-3-yl)ethyl)-3-(4-methyl-6-(5-methyl-1H-pyrazol-3-ylamino)pyridin-2-yl)cyclobutanecarboxamide] |
| 1.01 to 10 nM | Cc1cc(Nc2cc(C)[nH]n2)nc([C@]2(F)C[C@@H](C(=O)N[C@@H](C)c3ccc(-n4cc(F)cn4)nc3)C2)c1 [Compound 114] |
| 1.01 to 10 nM | Cc1cc(Nc2cc(C)[nH]n2)nc([C@]2(O)C[C@@H](C(=O)N(C)[C@@H](C)c3ccc(-n4cc(F)cn4)nc3)C2)c1 [Compound 116] |
| < 100 nM | CO[C@]1(c2cc(C)cc(Nc3cc(C)[nH]n3)n2)C[C@H](C(=O)N[C@@H](C)c2ccc(-n3cc(F)cn3)nc2)C1 [Compound 117, (1S,3R)—N—((S)-1-(6-(4-fluoro-1H-pyrazol-1-yl)pyridin-3-yl)ethyl)-3-methoxy-3-(4-methyl-6-((5-methyl-1H-pyrazol-3-yl)amino)pyridin-2-yl)cyclobutane-1-carboxamide] |
| < 100 nM | Cc1cc(Nc2cc(C)[nH]n2)nc([C@]2(O)C[C@](C)(C(=O)N[C@@H](C)c3ccc(-n4cc(F)cn4)nc3)C2)c1 [Compound 118] |
| < 1 nM | Cc1cc(Nc2cc(C)[nH]n2)nc([C@]2(O)C[C@@](C)(C(=O)N[C@@H](C)c3ccc(-n4cc(F)cn4)nc3)C2)c1 [Compound 119] |
| < 100 nM | Cc1cc(Nc2cc(C)[nH]n2)nc([C@]2(F)C[C@](C)(C(=O)N[C@@H](C)c3ccc(-n4cc(F)cn4)nc3)C2)c1 [Compound 126] |
| < 1 nM | CO[C@]1(C(=O)N[C@@H](C)c2ccc(-n3cc(F)cn3)nc2)C[C@](O)(c2cc(C)cc(Nc3cc(C)[nH]n3)n2)C1 [Compound 127] |
| < 100 nM | CO[C@]1(C(=O)N[C@@H](C)c2ccc(-n3cc(F)cn3)nc2)C[C@@](O)(c2cc(C)cc(Nc3cc(C)[nH]n3)n2)C1 [Compound 128] |

Source: patent publication US10183928B2, “Inhibitors of RET” (BLUEPRINT MEDICINES CORPORATION, priority 2016, dated 2019)
